This note sets out measurements from patent US7569567B2, “3-Heteroaryl-3,5-dihydro-4-oxo-4H-pyridazino[4,5-B]indole-1-carboxamide derivatives, their preparation and therapeutic use” (sanofi-aventis, priority 2001, dated 2009).

A word on the melting point: it is the temperature, or range, at which the solid turns liquid.

Take `CN(C)C(=O)c1nn(-c2cccnc2)c(=O)c2c1c1ccc(Cl)cc1n2C.Cl`: the melting point is 228 to 230 °C.

`CN(C)C(=O)c1nn(-c2ccncc2)c(=O)c2c1c1ccc(Cl)cc1n2C.Cl`: the melting point was in the range of 263 to 265 °C. For `Cl.Cn1c2cc(Cl)ccc2c2c(C(=O)N3CCCC3)nn(-c3cccnc3)c(=O)c21` the value was 232 to 234 °C; for `CN1CCN(C(=O)c2nn(-c3cccnc3)c(=O)c3c2c2ccc(Cl)cc2n3C)CC1.Cl`, 267 to 268 °C.

Turning to `CN(C)C(=O)c1nn(-c2ccncc2)c(=O)c2c1c1ccc(F)cc1n2C.Cl`, the melting point lay within 266 to 271 °C. As for `CN1CCN(C(=O)c2nn(-c3cccnc3)c(=O)c3c2c2ccc(F)cc2n3C)CC1.Cl`, the melting point fell in the range of 269 to 273 °C. Compound `CN(C)C(=O)c1nn(-c2ccccn2)c(=O)c2c1c1ccc(F)cc1n2C` [Compound 1, 7-fluoro-N,N,5-trimethyl-4-oxo-3-(pyridin-2-yl)-3,5-dihydro-4H-pyridazino[4,5-b]indole-1-carboxamide] showed a melting point of 199 to 200 °C.

Turning to `CN(C)C(=O)c1nn(-c2cccnc2)c(=O)c2c1c1ccc(F)cc1n2C` [Compound 2, 7-fluoro-N,N,5-trimethyl-4-oxo-3-(pyridin-3-yl)-3,5-dihydro-4H-pyridazino[4,5-b]indole-1-carboxamide], the melting point was in the range of 220 to 221 °C.

As for `COc1ccc(-n2nc(C(=O)N(C)C)c3c4ccc(F)cc4n(C)c3c2=O)cn1` [Compound 4, 7-fluoro-N,N,5-trimethyl-4-oxo-3-(2-methoxypyridin-5-yl)-3,5-dihydro-4H-pyridazino[4,5-b]indole-1-carboxamide], the melting point was 225 to 226 °C. With `CN(C)C(=O)c1nn(-c2cnc3ccccc3c2)c(=O)c2c1c1ccc(F)cc1n2C` [Compound 5, 7-fluoro-N,N,5-trimethyl-4-oxo-3-(quinolin-3-yl)-3,5-dihydro-4H-pyridazino[4,5-b]indole-1-carboxamide] the figure was 237 to 238 °C; with `Cn1c2cc(F)ccc2c2c(C(=O)N3CCCC3)nn(-c3ncccn3)c(=O)c21` [Compound 6, 1-[[7-fluoro-5-methyl-3-(pyrimidin-2-yl)-4-oxo-3,5-dihydro-4H-pyridazino[4,5-b]indol-1-yl]carbonyl]-pyrrolidine], 238 to 239 °C.

In turn, `Cn1c2cc(F)ccc2c2c(C(=O)N3CCCC3)nn(-c3cccnc3)c(=O)c21` [Compound 8, 1-[[7-fluoro-5-methyl-3-(pyridin-3-yl)-4-oxo-3,5-dihydro-4H-pyridazino[4,5-b]indol-1-yl]carbonyl]-pyrrolidine] displayed a melting point of 220 to 221 °C. Regarding `CNC(=O)c1nn(-c2cccnc2)c(=O)c2c1c1ccc(F)cc1n2C` [Compound 9, 7-fluoro-N,5-dimethyl-4-oxo-3-(pyridin-3-yl)-3,5-dihydro-4H-pyridazino[4,5-b]indole-1-carboxamide], the melting point lay within 270 to 272 °C. `Cn1c2cc(F)ccc2c2c(C(N)=O)nn(-c3cccnc3)c(=O)c21` [Compound 10, 7-fluoro-5-methyl-4-oxo-3-(pyridin-3-yl)-3,5-dihydro-4H-pyridazino[4,5-b]indole-1-carboxamide] had a melting point of 319 to 320 °C. In turn, `CN(C)C(=O)c1nn(-c2ccccn2)c(=O)c2c1c1ccc(Cl)cc1n2C` [Compound 11, 7-chloro-N,N,5-trimethyl-4-oxo-3-(pyridin-2-yl)-3,5-dihydro-4H-pyridazino[4,5-b]indole-1-carboxamide] had a melting point of 210 to 211 °C. Consider `CN(C)C(=O)c1nn(-c2ccncc2)c(=O)c2c1c1ccc(Cl)cc1n2C` [Compound 13, 7-chloro-N,N,5-trimethyl-4-oxo-3-(pyridin-4-yl)-3,5-dihydro-4H-pyridazino[4,5-b]indole-1-carboxamide], for which the melting point is 276 to 278 °C.

Take `Cc1ccc(-n2nc(C(=O)N(C)C)c3c4ccc(Cl)cc4n(C)c3c2=O)nc1` [Compound 15, 7-chloro-N,N,5-trimethyl-4-oxo-3-(5-methylpyridin-2-yl)-3,5-dihydro-4H-pyridazino[4,5-b]indole-1-carboxamide]: the melting point lay within 222 to 224 °C. As to `COc1ccc(-n2nc(C(=O)N(C)C)c3c4ccc(Cl)cc4n(C)c3c2=O)cn1` [Compound 16, 7-chloro-N,N,5-trimethyl-4-oxo-3-(2-methoxypyridin-5-yl)-3,5-dihydro-4H-pyridazino[4,5-b]indole-1-carboxamide], the melting point lay within 236 to 237 °C. In the case of `Cc1ccc(-n2nc(C(=O)N(C)C)c3c4ccc(Cl)cc4n(C)c3c2=O)cn1` [Compound 17, 7-chloro-N,N,5-trimethyl-4-oxo-3-(2-methylpyridin-5-yl)-3,5-dihydro-4H-pyridazino[4,5-b]indole-1-carboxamide], the melting point fell in the range of 214 to 216 °C. Turning to `CN(C)C(=O)c1nn(-c2ccc(Br)nc2)c(=O)c2c1c1ccc(Cl)cc1n2C` [Compound 18, 7-chloro-N,N,5-trimethyl-4-oxo-3-(2-bromopyridin-5-yl)-3,5-dihydro-4H-pyridazino[4,5-b]indole-1-carboxamide], the melting point lay within 250 to 252 °C. Compound `CN(C)C(=O)c1nn(-c2cnc3ccccc3c2)c(=O)c2c1c1ccc(Cl)cc1n2C` [Compound 19, 7-chloro-N,N,5-trimethyl-4-oxo-3-(quinolin-3-yl)-3,5-dihydro-4H-pyridazino[4,5-b]indole-1-carboxamide] returned a melting point of 271 to 272 °C. With `CN(C)C(=O)c1nn(-c2cncc3ccccc23)c(=O)c2c1c1ccc(Cl)cc1n2C` [Compound 20, 7-chloro-N,N,5-trimethyl-4-oxo-3-(isoquinolin-4-yl)-3,5-dihydro-4H-pyridazino[4,5-b]indole-1-carboxamide], the melting point was in the range of 189 to 191 °C. The compound `Cc1ccc(-n2nc(C(=O)N(C)C)c3c4ccc(Cl)cc4n(C)c3c2=O)nn1` [Compound 21, 7-chloro-N,N,5-trimethyl-4-oxo-3-(6-methyl-pyridazin-3-yl)-3,5-dihydro-4H-pyridazino[4,5-b]indole-1-carboxamide] came in with a melting point of 238 to 239 °C. `CN(C)C(=O)c1nn(-c2cncnc2)c(=O)c2c1c1ccc(Cl)cc1n2C` [Compound 22, 7-chloro-N,N,5-trimethyl-4-oxo-3-(pyrimidin-5-yl)-3,5-dihydro-4H-pyridazino[4,5-b]indole-1-carboxamide] displayed a melting point of 251 to 252 °C. As for `CN(C)C(=O)c1nn(-c2ncccn2)c(=O)c2c1c1ccc(Cl)cc1n2C` [Compound 23, 7-chloro-N,N,5-trimethyl-4-oxo-3-(pyrimidin-2-yl)-3,5-dihydro-4H-pyridazino[4,5-b]indole-1-carboxamide], the melting point is 272 to 274 °C. Take `CN(C)C(=O)c1nn(-c2cnccn2)c(=O)c2c1c1ccc(Cl)cc1n2C` [Compound 24, 7-chloro-N,N,5-trimethyl-4-oxo-3-(pyrazin-2-yl)-3,5-dihydro-4H-pyridazino[4,5-b]indole-1-carboxamide]: the melting point was 231 to 232 °C.

`Cn1c2cc(Cl)ccc2c2c(C(=O)N3CCCC3)nn(-c3ccncc3)c(=O)c21` [Compound 27, 1-[[7-chloro-5-methyl-3-(pyridin-4-yl)-4-oxo-3,5-dihydro-4H-pyridazino[4,5-b]indol-1-yl]carbonyl]-pyrrolidine]: the melting point was in the range of 236 to 237 °C. On to `CNC(=O)c1nn(-c2ccncc2)c(=O)c2c1c1ccc(Cl)cc1n2C` [Compound 28, 7-chloro-N,5-dimethyl-4-oxo-3-(pyridin-4-yl)-3,5-dihydro-4H-pyridazino[4,5-b]indole-1-carboxamide], for which the melting point lay in the range of 321 to 323 °C. `Cn1c2cc(Cl)ccc2c2c(C(N)=O)nn(-c3ccncc3)c(=O)c21` [Compound 29, 7-chloro-5-methyl-4-oxo-3-(pyridin-4-yl)-3,5-dihydro-4H-pyridazino[4,5-b]indole-1-carboxamide]: the melting point lay in the range of 341 to 346 °C. `COc1ccnc(-n2nc(C(=O)N(C)C)c3c4ccc(Cl)cc4n(C)c3c2=O)c1` [Compound 30, 7-chloro-N,N,5-trimethyl-4-oxo-3-(4-methoxypyridin-2-yl)-3,5-dihydro-4H-pyridazino[4,5-b]indole-1-carboxamide] gave a melting point of 243 to 244 °C. Compound `CCN(C)C(=O)c1nn(-c2ccncc2)c(=O)c2c1c1ccc(Cl)cc1n2C` [Compound 33, 7-chloro-N-ethyl-N,5-dimethyl-4-oxo-3-(pyridin-4-yl)-3,5-dihydro-4H-pyridazino[4,5-b]indole-1-carboxamide] showed a melting point of 211 to 213 °C. `Cn1c2cc(Cl)ccc2c2c(C(=O)N3CCCCC3)nn(-c3ccncc3)c(=O)c21` [Compound 34, 1-[[7-chloro-5-methyl-3-(pyridin-4-yl)-4-oxo-3,5-dihydro-4H-pyridazino[4,5-b]indol-1-yl]carbonyl]-piperidine] displayed a melting point of 242 to 243 °C. On to `Cc1cc(-n2nc(C(=O)N(C)C)c3c4ccc(Cl)cc4n(C)c3c2=O)ccn1` [Compound 35, 7-chloro-N,N,5-trimethyl-4-oxo-3-(2-methylpyridin-4-yl)-3,5-dihydro-4H-pyridazino[4,5-b]indole-1-carboxamide], for which the melting point fell in the range of 267 to 269 °C. Compound `Cc1cc(-n2nc(C(=O)N3CCCC3)c3c4ccc(Cl)cc4n(C)c3c2=O)ccn1` [Compound 36, 1-[[7-chloro-5-methyl-3-(2-methylpyridin-4-yl)-4-oxo-3,5-dihydro-4H-pyridazino[4,5-b]indol-1-yl]carbonyl]pyrrolidine] registered a melting point of 246 to 247 °C. For the compound `CN(C)C(=O)c1nn(-c2cc[n+]([O-])cc2)c(=O)c2c1c1ccc(Cl)cc1n2C` [Compound 37, 7-chloro-N,N,5-trimethyl-3-(1-oxidopyridin-4-yl)-4-oxo-3,5-dihydro-4H-pyridazino[4,5-b]indole-1-carboxamide], the melting point was 301 to 304 °C. The compound `COc1cc(-n2nc(C(=O)N(C)C)c3c4ccc(Cl)cc4n(C)c3c2=O)ccn1` [Compound 38, 7-chloro-3-(2-methoxypyridin-4-yl)-N,N,5-trimethyl-4-oxo-3,5-dihydro-4H-pyridazino[4,5-b]indole-1-carboxamide] yielded a melting point of 237 to 238 °C.
